Test results from patent US8192962B2, “Processes for detecting toxic substances” (Daikin Industries, Ltd., priority 2001, dated 2012).

System: Transport facilitation protein genes
Assay: DNA chip mRNA expression in yeast, transport facilitation protein genes (Table 5)
Format: cell-based, Saccharomyces cerevisiae S288C
Outline: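 Cells were grown at 25° C. in YPD, treated at logarithmic phase for 2 h with a chemical at a concentration inhibiting growth but not causing death, and compared with untreated cultures. Labeled cDNA was hybridized to a DNA chip carrying all yeast genes, and the expression ratio was taken from scanner fluorescence.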

N#Cc1c(Cl)c(Cl)c(Cl)c(C#N)c1Cl [(9), 2,4,5,6-tetrachloro-1,3-benzenedicarbonitrile]
The level of expressed mRNA in the presence of chemical substance/The level of expressed mRNA in the absence of chemical substance (yeast gene YGR260W): 0.3 | The level of expressed mRNA in the presence of chemical substance/The level of expressed mRNA in the absence of chemical substance (yeast gene YGR281W): 2.7 | The level of expressed mRNA in the presence of chemical substance/The level of expressed mRNA in the absence of chemical substance (yeast gene YHL035C): 0.6 | The level of expressed mRNA in the presence of chemical substance/The level of expressed mRNA in the absence of chemical substance (yeast gene YHL040C): 1.1 | The level of expressed mRNA in the presence of chemical substance/The level of expressed mRNA in the absence of chemical substance (yeast gene YHL047C): 1.2 | The level of expressed mRNA in the presence of chemical substance/The level of expressed mRNA in the absence of chemical substance (yeast gene YHR026W): 1.1 | The level of expressed mRNA in the presence of chemical substance/The level of expressed mRNA in the absence of chemical substance (yeast gene YHR092C): 0.2 | The level of expressed mRNA in the presence of chemical substance/The level of expressed mRNA in the absence of chemical substance (yeast gene YHR094C): 0.3 | The level of expressed mRNA in the presence of chemical substance/The level of expressed mRNA in the absence of chemical substance (yeast gene YHR175W): 0.6 | The level of expressed mRNA in the presence of chemical substance/The level of expressed mRNA in the absence of chemical substance (yeast gene YIL006W): 0.9 | The level of expressed mRNA in the presence of chemical substance/The level of expressed mRNA in the absence of chemical substance (yeast gene YIL022W): 1.1 | The level of expressed mRNA in the presence of chemical substance/The level of expressed mRNA in the absence of chemical substance (yeast gene YIL056W): 1.2 | The level of expressed mRNA in the presence of chemical substance/The level of expressed mRNA in the absence of chemical substance (yeast gene YIL088C): 1.0 | The level of expressed mRNA in the presence of chemical substance/The level of expressed mRNA in the absence of chemical substance (yeast gene YJL034W): 2.8 | The level of expressed mRNA in the presence of chemical substance/The level of expressed mRNA in the absence of chemical substance (yeast gene YJL212C): 1.1 | The level of expressed mRNA in the presence of chemical substance/The level of expressed mRNA in the absence of chemical substance (yeast gene YJL219W): 4.0 | The level of expressed mRNA in the presence of chemical substance/The level of expressed mRNA in the absence of chemical substance (yeast gene YJR077C): 0.4 | The level of expressed mRNA in the presence of chemical substance/The level of expressed mRNA in the absence of chemical substance (yeast gene YJR106W): 2.0 | The level of expressed mRNA in the presence of chemical substance/The level of expressed mRNA in the absence of chemical substance (yeast gene YJR121W): 0.8 | The level of expressed mRNA in the presence of chemical substance/The level of expressed mRNA in the absence of chemical substance (yeast gene YKL016C): 1.3 | The level of expressed mRNA in the presence of chemical substance/The level of expressed mRNA in the absence of chemical substance (yeast gene YKL146W): 4.6 | The level of expressed mRNA in the presence of chemical substance/The level of expressed mRNA in the absence of chemical substance (yeast gene YKR039W): 1.9 | The level of expressed mRNA in the presence of chemical substance/The level of expressed mRNA in the absence of chemical substance (yeast gene YKR067W): 1.6 | The level of expressed mRNA in the presence of chemical substance/The level of expressed mRNA in the absence of chemical substance (yeast gene YKR105C): 1.0 | The level of expressed mRNA in the presence of chemical substance/The level of expressed mRNA in the absence of chemical substance (yeast gene YLL028W): 1.2 | The level of expressed mRNA in the presence of chemical substance/The level of expressed mRNA in the absence of chemical substance (yeast gene YLR081W): 0.1 | The level of expressed mRNA in the presence of chemical substance/The level of expressed mRNA in the absence of chemical substance (yeast gene YLR295C): 1.4 | The level of expressed mRNA in the presence of chemical substance/The level of expressed mRNA in the absence of chemical substance (yeast gene YLR348C): 2.1 | The level of expressed mRNA in the presence of chemical substance/The level of expressed mRNA in the absence of chemical substance (yeast gene YLR378C): 1.1 | The level of expressed mRNA in the presence of chemical substance/The level of expressed mRNA in the absence of chemical substance (yeast gene YMR011W): 0.0 | The level of expressed mRNA in the presence of chemical substance/The level of expressed mRNA in the absence of chemical substance (yeast gene YMR162C): 0.7 | The level of expressed mRNA in the presence of chemical substance/The level of expressed mRNA in the absence of chemical substance (yeast gene YMR203W): 0.7 | The level of expressed mRNA in the presence of chemical substance/The level of expressed mRNA in the absence of chemical substance (yeast gene YNL055C): 1.1 | The level of expressed mRNA in the presence of chemical substance/The level of expressed mRNA in the absence of chemical substance (yeast gene YNL259C): 1.6 | The level of expressed mRNA in the presence of chemical substance/The level of expressed mRNA in the absence of chemical substance (yeast gene YNR072W): 0.7 | The level of expressed mRNA in the presence of chemical substance/The level of expressed mRNA in the absence of chemical substance (yeast gene YOL119C): 5.0 | The level of expressed mRNA in the presence of chemical substance/The level of expressed mRNA in the absence of chemical substance (yeast gene YOL156W): 2.3 | The level of expressed mRNA in the presence of chemical substance/The level of expressed mRNA in the absence of chemical substance (yeast gene YOL163W): 7.5 | The level of expressed mRNA in the presence of chemical substance/The level of expressed mRNA in the absence of chemical substance (yeast gene YOR035C): 1.3 | The level of expressed mRNA in the presence of chemical substance/The level of expressed mRNA in the absence of chemical substance (yeast gene YOR130C): 2.0 | The level of expressed mRNA in the presence of chemical substance/The level of expressed mRNA in the absence of chemical substance (yeast gene YOR153W): 3.2 | The level of expressed mRNA in the presence of chemical substance/The level of expressed mRNA in the absence of chemical substance (yeast gene YOR270C): 0.4 | The level of expressed mRNA in the presence of chemical substance/The level of expressed mRNA in the absence of chemical substance (yeast gene YOR273C): 0.6 | The level of expressed mRNA in the presence of chemical substance/The level of expressed mRNA in the absence of chemical substance (yeast gene YOR316C): 1.6 | The level of expressed mRNA in the presence of chemical substance/The level of expressed mRNA in the absence of chemical substance (yeast gene YOR332W): 1.8 | The level of expressed mRNA in the presence of chemical substance/The level of expressed mRNA in the absence of chemical substance (yeast gene YOR348C): 0.5 | The level of expressed mRNA in the presence of chemical substance/The level of expressed mRNA in the absence of chemical substance (yeast gene YPL036W): 0.1 | The level of expressed mRNA in the presence of chemical substance/The level of expressed mRNA in the absence of chemical substance (yeast gene YPL134C): 0.6 | The level of expressed mRNA in the presence of chemical substance/The level of expressed mRNA in the absence of chemical substance (yeast gene YPL265W): 0.2 | The level of expressed mRNA in the presence of chemical substance/The level of expressed mRNA in the absence of chemical substance (yeast gene YPL271W): 0.6 | The level of expressed mRNA in the presence of chemical substance/The level of expressed mRNA in the absence of chemical substance (yeast gene YPR192W): 0.7 | The level of expressed mRNA in the presence of chemical substance/The level of expressed mRNA in the absence of chemical substance (yeast gene YPR194C): 0.5
